{"source": "patent US20260174744A1", "about": "“COMPOUNDS, COMPOSITIONS, AND METHODS OF TREATING RNA VIRAL INFECTIONS” (priority 2024, published 2026)", "key": {"[1]": {"tested_on": "SARS-CoV-2 variants, Alphacoronavirus, Betacoronavirus, HCV, NoV, IAV, IAB", "experiment": "organism not typed", "conditions": "read-out: EC50 against remaining viruses"}, "[2]": {"tested_on": "SARS-CoV-2 variants, Alphacoronavirus, Betacoronavirus, HCV, NoV, IAV, IAB"}}}
{"molecule": "Cc1c(-c2ccc(O)cc2)n(Cc2ccc(OCCN3CCCCC3)cc2)c2ccc(O)cc12", "note": "[Pipendoxifene]", "values": [{"measurement": "EC50", "setting": "[1]", "value": "3 to 8", "unit": "µM"}, {"measurement": "potency against six SARS-CoV-2 variants and two coronaviruses", "setting": "[2]", "value": "submicromolar potency"}]}
